How the values were obtained:
human MT1 receptor = biological target: T1, human MT1 receptor (Homo sapiens, UniProt P48039); assay: Activation of human MT1 receptor in receptor-expressing cells, intracellular Ca2+ by FLIPR; format: cell-based; details: for EC50: HEK293EBNA1 cells stably expressing human MT1 and Gq/i chimeric G protein, Ca2+ FLIPR; for Emax: maximum reaction by ramelteon taken as 100%
T1 construct: expressed in transfected cells

human MT2 receptor = biological target: T2, human MT2 receptor (Homo sapiens, UniProt P49286); assay: Activation of human MT2 receptor in receptor-expressing cells, intracellular Ca2+ by FLIPR; format: cell-based; details: for EC50: HEK293 cells stably expressing human MT2 and Gq/i chimeric G protein, Ca2+ FLIPR; for Emax: maximum reaction by ramelteon taken as 100%
T2 construct: expressed in transfected cells
T2 sequence (P49286 1-362): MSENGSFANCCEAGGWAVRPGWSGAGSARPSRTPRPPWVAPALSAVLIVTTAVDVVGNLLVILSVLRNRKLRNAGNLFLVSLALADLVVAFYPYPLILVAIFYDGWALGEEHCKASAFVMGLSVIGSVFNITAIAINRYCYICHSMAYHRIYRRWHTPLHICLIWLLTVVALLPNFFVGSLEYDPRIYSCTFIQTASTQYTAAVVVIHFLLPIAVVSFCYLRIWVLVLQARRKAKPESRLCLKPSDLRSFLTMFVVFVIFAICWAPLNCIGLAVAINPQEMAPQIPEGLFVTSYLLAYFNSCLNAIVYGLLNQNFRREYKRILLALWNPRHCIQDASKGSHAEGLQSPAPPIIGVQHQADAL

T1 sequence (P48039 whole entry): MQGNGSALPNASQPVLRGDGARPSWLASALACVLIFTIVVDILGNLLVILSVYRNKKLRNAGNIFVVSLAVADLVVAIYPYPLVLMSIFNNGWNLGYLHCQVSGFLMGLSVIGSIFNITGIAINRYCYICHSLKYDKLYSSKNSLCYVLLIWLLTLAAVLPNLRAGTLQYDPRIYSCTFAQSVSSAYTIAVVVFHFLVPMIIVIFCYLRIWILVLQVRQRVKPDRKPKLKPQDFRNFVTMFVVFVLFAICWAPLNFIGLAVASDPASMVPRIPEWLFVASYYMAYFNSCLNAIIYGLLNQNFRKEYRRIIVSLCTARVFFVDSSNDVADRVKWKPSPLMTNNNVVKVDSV

## CC(=O)NCCc1c[nH]c2ccc(OCCOc3ccn(C)n3)cc12 [Example 2, N-[2-(5-{2-[(1-methyl-1H-pyrazol-3-yl)oxy]ethoxy}-1H-indol-3-yl)ethyl]acetamide]
Human MT1 receptor
  EC50: 7 nM
  Emax: 125%
Human MT2 receptor
  EC50: 17 nM
  Emax: 125%

## CC(=O)NCCc1c[nH]c2ccc(OCCOc3cnccn3)cc12 [Example 3, N-(2-{5-[2-(pyrazin-2-yloxy)ethoxy]-1H-indol-3-yl}ethyl)acetamide]
Human MT1 receptor
  EC50: 9.9 nM
  Emax: 94%
Human MT2 receptor
  EC50: 51 nM
  Emax: 127%

## CCOC(=O)NCCOc1ccc2[nH]c(C)c(CCNC(C)=O)c2c1 [Example 12]
Human MT1 receptor
  EC50: 7.7 nM
  Emax: 96%
Human MT2 receptor
  EC50: 18 nM
  Emax: 93%

## COc1ccc(OCCOc2cc3c(CCNC(C)=O)c(C)[nH]c3cc2F)cn1 [Example 16]
Human MT1 receptor
  EC50: 10 nM
  Emax: 100%
Human MT2 receptor
  EC50: 100 nM
  Emax: 82%

## COC(=O)NCCOc1ccc2[nH]c(C)c(CCNC(C)=O)c2c1 [Example 17]
Human MT1 receptor
  EC50: 5.9 nM
  Emax: 84%
Human MT2 receptor
  EC50: 33 nM
  Emax: 91%

## COC(=O)NCCOc1cc2c(CCNC(C)=O)c(C)[nH]c2cc1F [Example 19]
Human MT1 receptor
  EC50: 5.7 nM
  Emax: 94%
Human MT2 receptor
  EC50: 17 nM
  Emax: 91%

## CC(=O)NCCc1c[nH]c2ccc(OCCc3csc(C)n3)cc12 [Example 20]
Human MT1 receptor
  EC50: 4.1 nM
  Emax: 115%
Human MT2 receptor
  EC50: 7.7 nM
  Emax: 119%

## CNC(=O)NCCc1c[nH]c2ccc(OCCc3nc(C)sc3C)cc12 [Example 21]
Human MT1 receptor
  EC50: 7 nM
  Emax: 103%
Human MT2 receptor
  EC50: 44 nM
  Emax: 59%

## CC(=O)NCCc1c(C)[nH]c2cc(F)c(OCCn3ccc(C)n3)cc12 [Example 22]
Human MT1 receptor
  EC50: 7.3 nM
  Emax: 105%
Human MT2 receptor
  EC50: 8.7 nM
  Emax: 95%

## CC(=O)NCCc1c[nH]c2cc(F)c(OCCn3cc(Cl)cn3)cc12 [Example 24]
Human MT1 receptor
  EC50: 13 nM
  Emax: 99%
Human MT2 receptor
  EC50: 18 nM
  Emax: 71%

## CC(=O)NCCc1c[nH]c2cc(F)c(OCCc3csc(C)n3)cc12 [Example 25]
Human MT1 receptor
  EC50: 1.5 nM
  Emax: 105%
Human MT2 receptor
  EC50: 2.9 nM
  Emax: 96%

## CNC(=O)NCCc1c[nH]c2cc(F)c(OCCc3csc(C)n3)cc12 [Example 26]
Human MT1 receptor
  EC50: 8.8 nM
  Emax: 97%
Human MT2 receptor
  EC50: 9.8 nM
  Emax: 106%

## CCc1ccn(CCOc2cc3c(CCNC(C)=O)c[nH]c3cc2F)n1 [Example 27]
Human MT1 receptor
  EC50: 8.7 nM
  Emax: 83%
Human MT2 receptor
  EC50: 10 nM
  Emax: 82%

## COc1ccc(OCCOc2cc3c(CCNC(C)=O)c[nH]c3cc2F)cn1 [Example 28]
Human MT1 receptor
  EC50: 6.8 nM
  Emax: 119%
Human MT2 receptor
  EC50: 35 nM
  Emax: 62%

## CC(=O)NCCc1c(C)[nH]c2ccc(OCCn3ccc(C)n3)cc12 [Example 29]
Human MT1 receptor
  EC50: 10 nM
  Emax: 100%
Human MT2 receptor
  EC50: 24 nM
  Emax: 112%

## CNC(=O)NCCc1c(C)[nH]c2ccc(OCCn3ccc(C)n3)cc12 [Example 30]
Human MT1 receptor
  EC50: 4.8 nM
  Emax: 106%
Human MT2 receptor
  EC50: 15 nM
  Emax: 110%

## COc1ncc(OCCOc2ccc3[nH]cc(CCNC(C)=O)c3c2)cc1F [Example 32]
Human MT1 receptor
  EC50: 3.4 nM
  Emax: 96%
Human MT2 receptor
  EC50: 50 nM
  Emax: 66%

## COc1ncc(OCCOc2cc3c(CCNC(C)=O)c[nH]c3cc2F)cc1F [Example 33]
Human MT1 receptor
  EC50: 4.3 nM
  Emax: 103%
Human MT2 receptor
  EC50: 60 nM
  Emax: 53%

## CC(=O)NCC(C)c1c[nH]c2ccc(OCCOc3ccn(C)n3)cc12 (stereo not drawn) [Example 34]
Human MT1 receptor
  EC50: 4.3 nM
  Emax: 93%
Human MT2 receptor
  EC50: 10 nM
  Emax: 125%

## CC(=O)NCC(C)(C)c1c[nH]c2cc(F)c(OCCOc3ccn(C)n3)cc12 [Example 35]
Human MT1 receptor
  EC50: 3.7 nM
  Emax: 94%
Human MT2 receptor
  EC50: 8.3 nM
  Emax: 114%

## CC(=O)NCC(C)(C)c1c[nH]c2cc(F)c(OCCn3ccc(C)n3)cc12 [Example 36]
Human MT1 receptor
  EC50: 6 nM
  Emax: 101%
Human MT2 receptor
  EC50: 15 nM
  Emax: 96%
